In assay [1] the target is Delta-type opioid receptor (Homo sapiens, UniProt P41143). The assay can be described thus: Displacement of [3H]DADLE from delta opioid receptor.
The next assay concerns the target Mu-type opioid receptor (Homo sapiens, UniProt P35372). The experiment in a line: Displacement of [3H]DAMGO from mu opioid receptor. For orientation: Displacement assays read how much labelled ligand stays bound in the presence of the test substance.
Assay [2] deals with T1, Kappa-type opioid receptor (Homo sapiens, UniProt P41145). The assay can be described thus: Displacement of [3H]U69593 from kappa opioid receptor.
T1 sequence (P41145 whole entry): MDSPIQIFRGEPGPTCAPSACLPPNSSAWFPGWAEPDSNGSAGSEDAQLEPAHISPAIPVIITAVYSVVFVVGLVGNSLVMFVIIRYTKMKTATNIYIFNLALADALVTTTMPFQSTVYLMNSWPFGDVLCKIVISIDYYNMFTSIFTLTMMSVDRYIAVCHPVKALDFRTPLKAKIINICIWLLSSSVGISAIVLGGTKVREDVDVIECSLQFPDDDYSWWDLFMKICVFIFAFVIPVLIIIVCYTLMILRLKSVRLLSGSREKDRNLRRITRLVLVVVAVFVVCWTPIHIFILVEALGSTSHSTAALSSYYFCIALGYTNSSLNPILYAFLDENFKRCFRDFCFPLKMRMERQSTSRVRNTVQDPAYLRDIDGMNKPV
The nature of assay [3]: Selectivity ratio of Ki for mu opioid receptor to Ki for kappa opioid receptor.
A short description of assay [4]: Selectivity ratio of Ki for delta opioid receptor to Ki for kappa opioid receptor.
The target in assay [5] is T1, Kappa-type opioid receptor. The assay can be described thus: Agonist activity at kappa opioid receptor assessed as stimulation of [35S]GTPgammaS binding relative to U50488. The format is functional. Background: GTPγS resists hydrolysis and so accumulates on activated G proteins.

Sequence of Mu-type opioid receptor (P35372 whole entry): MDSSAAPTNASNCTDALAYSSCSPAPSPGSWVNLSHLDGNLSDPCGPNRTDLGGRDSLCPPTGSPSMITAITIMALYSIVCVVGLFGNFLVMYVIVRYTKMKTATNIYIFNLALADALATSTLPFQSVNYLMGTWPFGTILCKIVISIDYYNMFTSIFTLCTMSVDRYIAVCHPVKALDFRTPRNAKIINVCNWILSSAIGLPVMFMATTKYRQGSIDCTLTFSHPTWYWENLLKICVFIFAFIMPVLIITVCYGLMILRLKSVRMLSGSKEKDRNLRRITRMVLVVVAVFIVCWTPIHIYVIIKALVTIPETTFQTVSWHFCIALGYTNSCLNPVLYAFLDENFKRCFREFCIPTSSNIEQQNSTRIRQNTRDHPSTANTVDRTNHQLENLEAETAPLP
Sequence of Delta-type opioid receptor (P41143 whole entry): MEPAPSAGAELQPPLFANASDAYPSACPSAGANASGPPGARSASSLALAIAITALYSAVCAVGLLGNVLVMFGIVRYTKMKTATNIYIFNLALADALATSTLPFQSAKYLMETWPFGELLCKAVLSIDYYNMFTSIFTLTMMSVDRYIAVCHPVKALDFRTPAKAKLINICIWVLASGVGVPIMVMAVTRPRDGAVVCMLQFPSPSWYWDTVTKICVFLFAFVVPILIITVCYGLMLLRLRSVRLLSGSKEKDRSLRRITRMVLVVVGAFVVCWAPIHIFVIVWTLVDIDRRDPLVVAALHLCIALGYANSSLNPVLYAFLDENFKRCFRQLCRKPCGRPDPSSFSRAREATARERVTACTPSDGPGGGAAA

`COC(=O)c1ccc([C@@H]2C[C@]3(C)[C@H]4C(=O)[C@@H](OC(C)=O)C[C@@H](C(=O)OC)[C@]4(C)CC[C@H]3C(=O)O2)cc1C(=O)OC`: the Ki in assay [1] is > 5000 nM; at Mu-type opioid receptor, > 3000 nM; in assay [2] it was 286 nM. Also, the Ratio Ki was > 8 in assay [3] and > 17 in assay [4].

`COC(=O)[C@@H]1C[C@H](OC(C)=O)C(=O)[C@H]2[C@@]1(C)CC[C@H]1C(=O)O[C@H](C3=CC4OC3C3C5OC(c6c5c5ccccc5c(=O)c5ccccc65)C43)C[C@]21C` (mixture of isomers): the values for the Ki (in assay [1]; at Mu-type opioid receptor; in assay [2]) were > 5200 nM, > 2700 nM and > 13000 nM, respectively. Besides, the Ratio Ki in assay [3] was > 0.2; in assay [4], > 17.

`CCOC(=O)c1ccc([C@@H]2C[C@]3(C)[C@H]4C(=O)[C@@H](OC(C)=O)C[C@@H](C(=O)OC)[C@]4(C)CC[C@H]3C(=O)O2)cc1C(=O)OCC`: the Ki in assay [1] is > 5000 nM; on Mu-type opioid receptor, > 3000 nM; in assay [2], 228 nM. The Ratio Ki is > 13 in assay [3] and > 22 in assay [4].

As to `CCOC(=O)C1=C(C(=O)OCC)C2OC1C=C2[C@@H]1C[C@]2(C)[C@H]3C(=O)[C@@H](OC(C)=O)C[C@@H](C(=O)OC)[C@]3(C)CC[C@H]2C(=O)O1` (some centres not stated), the Ki in assay [1] was 2260 nM; on Mu-type opioid receptor, > 3200 nM; in assay [2], 120 nM. The Ratio Ki in assay [3] is > 25; in assay [4], 19. The Emax in assay [5] is 90%.

As to `COC(=O)[C@@H]1C[C@H](OC(C)=O)C(=O)[C@H]2[C@@]1(C)CC[C@H]1C(=O)O[C@H](C3=CC4OC3C3C4C4OC3(C)c3c4c4ccccc4c(=O)c4ccccc34)C[C@]21C` (some centres not stated), the figures for the Ki (in assay [1]; at Mu-type opioid receptor; in assay [2]) were > 5000 nM, > 1700 nM and 290 nM, respectively. The Ratio Ki in assay [3] was > 6; in assay [4], > 17.

`COC(=O)C1=C(C(=O)OC)C2OC1C=C2[C@@H]1C[C@]2(C)[C@H]3C(=O)[C@@H](OC(C)=O)C[C@@H](C(=O)OC)[C@]3(C)CC[C@H]2C(=O)O1` (some centres not stated): the Ki in assay [1] was > 5000 nM; at Mu-type opioid receptor, > 4800 nM; in assay [2], 60 nM. Also, the Ratio Ki in assay [3] is > 80; in assay [4] it was > 83. In addition, the Emax in assay [5] was found to be 100%.

Regarding `COC(=O)[C@@H]1C[C@H](OC(C)=O)C(=O)[C@H]2[C@@]1(C)CC[C@H]1C(=O)O[C@H](C3=CC4OC3c3ccccc34)C[C@]21C` (some centres not stated), the Ki was > 10000 nM in assay [1], > 2500 nM on Mu-type opioid receptor and 790 nM in assay [2]. Further, the Ratio Ki in assay [3] was > 3; in assay [4] it was > 13.

With `COC(=O)[C@@H]1C[C@H](OC(C)=O)C(=O)[C@H]2[C@@]1(C)CC[C@H]1C(=O)O[C@H](c3ccc4ccccc4c3)C[C@]21C`, the Ki in assay [1] was > 5000 nM; on Mu-type opioid receptor it was > 3000 nM; in assay [2] it was > 8000 nM. The Ratio Ki in assay [3] was > 0.4; in assay [4] it was > 0.6.

By Ki is commonly meant a measure of affinity in units of concentration, obtained from inhibition or displacement. A lower Ki goes with tighter binding. The term Emax denotes the maximal effect, on the per cent scale that the assay sets.

The record behind these values is ChEMBL document CHEMBL1773062, “Opioid receptor probes derived from cycloaddition of the hallucinogen natural product salvinorin A” (J Nat Prod, 2011).
